From patent publication US20110184057A1, “PARENTERAL TREATMENT WITH STATINS” (priority 2008, published 2011)

Assay: Plasma lovastatin levels in rats after a single oral or dermal dose, by HMG-CoA reductase inhibition assay
Format: in vivo, rat
Details: intact rats, single dose, 1, 3, 6 and 24 hours; dermal in 100% DMSO vs oral gavage in 0.5% methylcellulose
Method: For oral administration, a suspension of lovastatin was prepared in 0.5% methylcellulose and administered by gavage.

In the case of `CC[C@H](C)C(=O)O[C@H]1C[C@@H](C)C=C2C=C[C@H](C)[C@H](CC[C@@H]3C[C@@H](O)CC(=O)O3)[C@H]21` [lovastatin], the “plasma concentrations of lovastatin, dermal versus oral” value is reported as “greater, less variable and more prolonged than when the drug was given orally”.
